Laboratory results taken from patent US11230526B1, “Cylcoalkenyl derivatives useful as agonists of the GPR120 and/or GPR40 receptors” (Janssen Pharmaceutica NV, priority 2018, dated 2022).

Experiments:
[1] = molecular target: T1, Human GPR120 short form (Homo sapiens, UniProt Q5NUL3); test: Human GPR120 calcium flux assay, Procedure Calcium B (4200 cells/well); assay type: cell-based
T1 construct: expressed in transfected cells
T1 sequence (Q5NUL3 1-361): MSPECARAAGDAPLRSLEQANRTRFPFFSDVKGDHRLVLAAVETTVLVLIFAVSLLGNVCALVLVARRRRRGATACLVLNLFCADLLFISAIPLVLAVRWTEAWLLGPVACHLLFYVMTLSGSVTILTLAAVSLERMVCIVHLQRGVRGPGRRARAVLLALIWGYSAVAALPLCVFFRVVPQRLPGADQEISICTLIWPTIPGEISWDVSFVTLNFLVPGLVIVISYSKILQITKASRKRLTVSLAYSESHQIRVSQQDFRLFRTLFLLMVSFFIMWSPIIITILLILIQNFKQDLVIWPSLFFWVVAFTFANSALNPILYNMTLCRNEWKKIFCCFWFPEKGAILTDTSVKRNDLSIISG
Method in brief: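 Agonist EC50 came from a four-parameter fit of RFU (Fmax−Fmin) read over 300 s on FLIPR. Cells were HEK293 stably transfected with human GPR120 (NM_001195755.1) at 4200 per well, serum-starved 1 h and loaded with Fluo-4 NW dye with probenecid before ligand addition.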

[2] = molecular target: T2, human GPR40 (Homo sapiens, UniProt O14842); test: GPR40 calcium flux assay, human GPR40; assay type: cell-based; conditions: HEK293 cells stably expressing GPR40; table does not say human or rat
T2 construct: expressed in transfected cells
Method in brief: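 Cells preincubated 1 h at 37° C. in HBSS, 20 mM HEPES, 0.1% BSA, then Fluo 8 calcium dye 30 min at 37° C. and 15 min at room temperature.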

T2 sequence (O14842 whole entry): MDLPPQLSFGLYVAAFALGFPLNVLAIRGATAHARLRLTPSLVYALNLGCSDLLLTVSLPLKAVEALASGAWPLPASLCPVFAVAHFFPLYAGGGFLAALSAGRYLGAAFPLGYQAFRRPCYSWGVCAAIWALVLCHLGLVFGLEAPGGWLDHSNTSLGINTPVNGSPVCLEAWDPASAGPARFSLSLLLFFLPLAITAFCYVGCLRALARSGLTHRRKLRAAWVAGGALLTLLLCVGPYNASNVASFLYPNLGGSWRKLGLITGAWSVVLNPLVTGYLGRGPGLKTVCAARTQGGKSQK

EC50 [1] [nM] | EC50 [2] [nM] | Structure (SMILES)
273 | 118 | O=C(O)CCc1cc(F)c(OCC2=C(C3CCCC3)CCC2)cc1Cl [Compound 450, 3-[2-chloro-4-[(2-cyclopentylcyclopenten-1-yl)methoxy]-5-fluoro-phenyl]Propanoic Acid]
249 | 32 | O=C(O)CCc1ccc(OCC2=C(C3C=CCC3)CCC2)cc1Cl (stereo not shown) [Compound 451, 3-[2-chloro-4-[(2-cyclopent-2-en-1-ylcyclopenten-1-yl)methoxy]phenyl]Propanoic Acid]
127 | 170 | O=C(O)CCc1ccc(OCC2=C(C3C=CCC3)CCC2)cc1 (stereo not shown) [Compound 452, 3-[4-[(2-cyclopent-2-en-1-ylcyclopenten-1-yl)methoxy]phenyl]Propanoic Acid]
181 | 10 | O=C(O)CCc1ccc(OCC2=C(C3C=CCC3)CCC2)cc1C(F)(F)F (stereo not shown) [Compound 453, 3-[4-[(2-cyclopent-2-en-1-ylcyclopenten-1-yl)methoxy]-2-(trifluoromethyl)phenyl]Propanoic Acid]
126 | 46 | O=C(O)CCc1ccc(OCC2=C(C3CCCC3)CC(F)(F)C2)cc1F [Compound 457, 3-[4-[(2-cyclopentyl-4,4-difluoro-cyclopenten-1-yl)methoxy]-2-fluoro-phenyl]Propanoic Acid]
> 5000 | > 5000 | CCC1CCCC(COc2ccc(CCC(=O)O)c(C)c2C)=C1c1ccc(Cl)cc1 (stereo not shown) [Compound 478, 3-[4-[[2-(4-chlorophenyl)-3-ethyl-cyclohexen-1-yl]methoxy]-2,3-dimethyl-phenyl]Propanoic Acid]
1530 | > 5000 | Cc1c(CCC(=O)O)ccc(OCC2=C(c3ccc(Cl)cc3)CC(C(C)C)CC2)c1C (stereo not shown) [Compound 500, 3-[4-[[2-(4-chlorophenyl)-4-isopropyl-cyclohexen-1-yl]methoxy]-2,3-dimethyl-phenyl]Propanoic Acid]
> 5000 | > 5000 | Cc1c(CCC(=O)O)ccc(OCC2=C(c3ccc(Cl)cc3)C(C(C)C)CCC2)c1C (stereo not shown) [Compound 523, 3-[4-[[2-(4-chlorophenyl)-3-isopropyl-cyclohexen-1-yl]methoxy]-2,3-dimethyl-phenyl]Propanoic Acid]
1500 | 4760 | Cc1c(CCC(=O)O)ccc(OCC2=C(c3ccc(Cl)cc3)CCC(C)(C)C2)c1C [Compound 541, 3-[4-[[2-(4-chlorophenyl)-5,5-dimethyl-cyclohexen-1-yl]methoxy]-2,3-dimethyl-phenyl]Propanoic Acid]
1350 | > 5000 | Cn1cc(C2=C(COc3c(F)cc(CCC(=O)O)cc3F)CC(F)(F)CC2)cn1 [Compound 544]
2130 | 4410 | COC1CCC(c2ccc(C)cc2)=C(COc2ccc(CCC(=O)O)cc2)C1 (stereo not shown) [Compound 574, 3-[4-[[5-methoxy-2-(p-tolyl)cyclohexen-1-yl]methoxy]phenyl]Propanoic Acid]
1100 | 3010 | COC1CCC(c2ccc(C)cc2)=C(COc2ccc(CCC(=O)O)c(C(F)(F)F)c2)C1 (stereo not shown) [Compound 577, 3-[4-[[5-methoxy-2-(p-tolyl)cyclohexen-1-yl]methoxy]-2-(trifluoromethyl)phenyl]Propanoic Acid]
1780 | 2140 | CC(C)CC1=C(COc2ccc(CCC(=O)O)cc2)CCCC1 [Compound 578, 3-[4-[(2-isobutylcyclohexen-1-yl)methoxy]phenyl]Propanoic Acid]
585 | 75 | CC(C)CC1=C(COc2ccc(CCC(=O)O)c(C(F)(F)F)c2)CCCC1 [Compound 579, 3-[4-[(2-isobutylcyclohexen-1-yl)methoxy]-2-(trifluoromethyl)phenyl]Propanoic Acid]
1330 | 202 | CC(C)CC1=C(COc2ccc(CCC(=O)O)c(Cl)c2)CCCC1 [Compound 580, 3-[2-chloro-4-[(2-isobutylcyclohexen-1-yl)methoxy]phenyl]Propanoic Acid]
1650 | 2420 | CC(C)C1=C(COc2ccc(CCC(=O)O)cc2)CCCC1 [Compound 585, 3-[4-[(2-isopropylcyclohexen-1-yl)methoxy]phenyl]Propanoic Acid]
908 | 52 | CC(C)C1=C(COc2ccc(CCC(=O)O)c(C(F)(F)F)c2)CCCC1 [Compound 586, 3-[4-[(2-isopropylcyclohexen-1-yl)methoxy]-2-(trifluoromethyl)phenyl]Propanoic Acid]
1140 | 99 | CC(C)C1=C(COc2ccc(CCC(=O)O)c(Cl)c2)CCCC1 [Compound 587, 3-[2-chloro-4-[(2-isopropylcyclohexen-1-yl)methoxy]phenyl]Propanoic Acid]
1140 | 1920 | CCCCC1=C(COc2ccc(CCC(=O)O)cc2)CCCC1 [Compound 588, 3-[4-[(2-butylcyclohexen-1-yl)methoxy]phenyl]Propanoic Acid]
3150 | 2390 | CCCC1=C(COc2ccc(CCC(=O)O)cc2)CCCC1 [Compound 589, 3-[4-[(2-propylcyclohexen-1-yl)methoxy]phenyl]Propanoic Acid]

The next lines start with the compound.

Structure (SMILES) | EC50 [1] [nM] | EC50 [2] [nM]
C=Cc1cc(OCC2=C(C3CCCC3)CCC2)ccc1CCC(=O)O [Compound 442, 3-[4-[(2-cyclopentylcyclopenten-1-yl)methoxy]-2-vinyl-phenyl]Propanoic Acid] | 334 | 48
CC(O)c1cc(OCC2=C(C3CCCC3)CCC2)ccc1CCC(=O)O (stereo not shown) [Compound 443, 3-[4-[(2-cyclopentylcyclopenten-1-yl)methoxy]-2-(1-hydroxyethyl)phenyl]Propanoic Acid] | > 5000 | 1580
O=C(O)CCc1ccc(OCC2=C(C3CCCC3)CCC2)cc1C1CC1 [Compound 444, 3-[4-[(2-cyclopentylcyclopenten-1-yl)methoxy]-2-cyclopropyl-phenyl]Propanoic Acid] | 319 | 174
O=C(O)CCc1ccc(OCC2=C(Cc3nccs3)CCC2)cc1Cl [Compound 445, 3-[2-chloro-4-[[2-(thiazol-2-ylmethyl)cyclopenten-1-yl]methoxy]phenyl]Propanoic Acid] | 3540 | 266
O=C(O)CCc1ccc(OCC2=C(C3CCCC3)CCC2)cc1C(F)(F)C(F)(F)F [Compound 446, 3-[4-[(2-cyclopentylcyclopenten-1-yl)methoxy]-2-(1,1,2,2,2-pentafluoroethyl)phenyl]Propanoic Acid] | 828 | 458
C=C(Br)c1cc(OCC2=C(C3CCCC3)CCC2)ccc1CCC(=O)O [Compound 448, 3-[2-(1-bromovinyl)-4-[(2-cyclopentylcyclopenten-1-yl)methoxy]phenyl]Propanoic Acid] | > 5000 | 2040
C#Cc1cc(OCC2=C(C3CCCC3)CCC2)ccc1CCC(=O)O [Compound 454, 3-[4-[(2-cyclopentylcyclopenten-1-yl)methoxy]-2-ethynyl-phenyl]Propanoic Acid] | 2250 | 513
O=C(O)CCc1ccc(OCC2=C(C3CCC4CC43)CCC2)cc1 (stereo not shown) [Compound 455, 3-[4-[[2-(4-bicyclo[3.1.0]hexanyl)cyclopenten-1-yl]methoxy]phenyl]Propanoic Acid] | 340 | 403
O=C(O)CCc1ccc(OCC2=C(C3CCC4CC43)CCC2)cc1C(F)(F)F (stereo not shown) [Compound 456, 3-[4-[[2-(4-bicyclo[3.1.0]hexanyl)cyclopenten-1-yl]methoxy]-2-(trifluoromethyl)phenyl]Propanoic Acid] | 924 | 42
COC1CCC(c2ccccc2C)=C(COc2ccc(CCC(=O)O)cc2)C1 (stereo not shown) [Compound 575, 3-[4-[[5-methoxy-2-(o-tolyl)cyclohexen-1-yl]methoxy]phenyl]Propanoic Acid] | > 5000 | > 5000
COC1CCC(c2ccccc2C)=C(COc2ccc(CCC(=O)O)c(C(F)(F)F)c2)C1 (stereo not shown) [Compound 576, 3-[4-[[5-methoxy-2-(o-tolyl)cyclohexen-1-yl]methoxy]-2-(trifluoromethyl)phenyl]Propanoic Acid] | > 5000 | 1570
O=C(O)CCc1ccc(OCC2=C(Cc3ccccc3)CCCC2)cc1 [Compound 581, 3-[4-[(2-benzylcyclohexen-1-yl)methoxy]phenyl]Propanoic Acid] | 2110 | 591
O=C(O)CCc1ccc(OCC2=C(Cc3ccccc3)CCCC2)cc1Cl [Compound 582, 3-[4-[(2-benzylcyclohexen-1-yl)methoxy]-2-chloro-phenyl]Propanoic Acid] | 1210 | 77
CCCCC1=C(COc2ccc(CCC(=O)O)c(Cl)c2)CCCC1 [Compound 583, 3-[4-[(2-butylcyclohexen-1-yl)methoxy]-2-chloro-phenyl]Propanoic Acid] | 765 | 294
O=C(O)CCc1ccc(OCC2=C(Cc3ccccc3)CCCC2)cc1C(F)(F)F [Compound 584, 3-[4-[(2-benzylcyclohexen-1-yl)methoxy]-2-(trifluoromethyl)phenyl]Propanoic Acid] | 756 | 91
